We go through two compounds from patent EP0638566B1, “5-Aminoflavone derivatives, their preparation and their use as antibacterial, anti-estrogenic and/or antitumor agent” (KYOWA HAKKO KOGYO CO., LTD., priority 1993, dated 1995).

In assay [1] the test system is uterus weight of immature mice. Kind of assay: Effect against the increase in uterus weight of immature mice. Particulars: for Weight of uterus: oral, three days, uteri isolated after four days. It is filed as in vivo, female BALB/c mice. The method, then:
The effect against the increase in uterus weight of immature mice
Immature female BALB/c mice, 4 weeks age, were divided into two groups and 50 µg of estradiol was subcutaneously administered to the animals of one group in the chest. The test compounds were repeatedly administered orally to each group (8 animals per group) for three days since the date of estradiol administration. After four days, the uteri were isolated and the weight thereof was measured.
In Table 2, "estradiol (-)" represents an estradiol-untreated group and "estradiol (+)" represents an estradiol-treated group.

Assay [2] relates to Human mammary cancer MCF-7 cell. Kind of assay: Human mammary cancer MCF-7 cell growth inhibition test (neutral red). It is filed as cell-based. The settings on record: MCF7, MCF-7 cells, medium with 10^-8M estradiol, 72 hours, neutral red, absorbance at 550 nm, read-out: IC50. As to the method:
Human mammary cancer MCF-7 cell growth inhibition test
Each 0.1 ml of MCF-7 cells which had been prepared to 5 x 10^4/ml using a medium (referred to as Medium B hereinafter) prepared by adding 10% bovine fetal serum, 10^-8M estradiol (manufactured by Sigma), 100 units/ml penicillin and 100 µg/ml streptomycin to RPMI1640 medium was distributed in each well of 96 well-microtiter plate. […] Supernatant was removed, each 0.1 ml of Medium B containing 0.02% neutral red was added to the residue, the mixture was cultured at 37 °C for 1 hour in a CO2 gas incubator and the cells were stained by neutral red dye. Supernatant was removed and the residue was washed once with a physiological saline. Then, the dye was extracted with 0.001N hydrochloric acid/30% ethanol and the absorbance at 550 nm was determined with a microplatereader.

The subject of assay [3] is estrogen-dependent human mammary cancer MCF-7. In words: Antitumor effects against MCF-7 tumor transplanted in nude mice. The settings on record: Mus musculus, MCF7, 5 days per week for two weeks, read-out: T/C. The class given is in vivo, female BALB/c-nu/nu mice. The text has this: Antitumor effects against estrogen-dependent human mammary cancer MCF-7
The tumor fragment (2mm x 2mm x 2mm) of human hormone dependent mammary cancer MCF-7 was transplanted subcutaneously in the flank of female BALB/c-nu/nu mice (Nihon Crea), 7 to 9 weeks age. […] 3 to 4 Weeks after transplantation, mice of the tumor volume of 25 to 200 mm^3 were selected, and the test compounds were orally administered repeatedly to the groups (5 animals per group) for 5 days per a week, for total two weeks. In addition, estradiol propionate was administered again on the date of initial administration of the test compounds. Length and width of the tumor were determined every day, and the tumor volumes were calculated by means of ellipsoid approximation according to the following equation: […] [formula] The tumor volume at initial administration (Vo) and on the day of judgement (V) was calculated, and the tumor growth rate (V/Vo) was calculated. T/C value was obtained as the ratio of V/Vo value of treated group relative to that of control group.

Assay [4] has as its system estrogen-dependent human mammary cancer Br-10. Kind of assay: Antitumor effects against Br-10 tumor transplanted in nude mice. The class given is in vivo, female BALB/c-nu/nu mice. Particulars: 5 days per week for two to four weeks. The text has this: Antitumor effects against estrogen-dependent human mammary cancer Br-10
The tumor fragment (2mm x 2mm x 2mm) of human hormone dependent mammary cancer Br-10 was transplanted subcutaneously in the flank of female BALB/c-nu/nu mice (Nihon Crea), 7 to 9 weeks age. […] 3 to 4 Weeks after transplantation, mice the tumor volume of which increased to 30 to 150 mm^3 were selected, and the test compounds were orally administered repeatedly to the groups (5 animals per group) for 5 days per a week, for total two to four weeks. Estradiol propionate was additionally administered on the date of initial administration of the test compounds and 14 days after the administration. Length and breadth of the tumor were determined every day, and the tumor volumes were calculated by means of ellipsoid approximation according to the above equation. The tumor volume at initial administration (Vo) and on the day of judgement (V) was calculated, and the tumor growth rate (V/Vo) was calculated. T/C value was obtained as the ratio of V/Vo value of treated group relative to that of control group.

What is called IC50 is the point on the concentration scale where inhibition reaches its midpoint.

Molecules are shown by their SMILES.

Regarding `Cc1c(F)c(N)c2c(=O)cc(-c3ccc(N)c(F)c3)oc2c1F` [Compound 1, 5-Amino-2-(4-amino-3-fluorophenyl)-6,8-difluoro-7-methyl-4H-1-benzopyran-4-one], the Weight of uterus in assay [1] (estradiol (+) (50 µg estradiol s.c.), dose 50 mg/kg) is 38 mg; in assay [1] (estradiol (-) (estradiol-untreated group), dose 50 mg/kg), 17 mg. Also, in assay [2], the concentration for half-maximal inhibition (IC50) was determined as 13 nM. Also, in assay [3] (dose 50 mg/kg oral, judgement day 18), the response vs control in vivo at 50 mg/kg is 6.4%. In addition, the T/C in assay [4] (dose 25 mg/kg oral, judgement day 18) was found to be 0.12.

With `CC/C(=C(\c1ccccc1)c1ccc(OCCN(C)C)cc1)c1ccccc1` [Tamoxifen], the Weight of uterus in assay [1] (estradiol (+) (50 µg estradiol s.c.), dose 5 mg/kg) worked out at 47 mg; in assay [1] (estradiol (-) (estradiol-untreated group), dose 5 mg/kg) it was 49 mg. In addition, in assay [1] (result in words, estradiol-treated group, oral administration), the “anti-estrogenic activity (increase in the uterus weight observed in an estradiol-treated group)” value was “weak anti-estrogenic activity”. Besides, the “weight of the uterus in an estradiol-untreated group” value in assay [1] (result in words, estradiol-untreated group) is listed as “significantly increases the weight of the uterus”. Also, the response vs control in vivo at 5 mg/kg in assay [3] (dose 5 mg/kg oral, judgement day 22) was 25%. Moreover, the T/C in assay [4] (dose 5 mg/kg oral, judgement day 25) turned out to be 0.58.
